Values quoted from earlier work, collected in patent US20040084867A1, “Individualization of therapy with anticoagulants” (Xanthus Life Sciences, Inc., priority 2002, published 2004).
Read-outs that look alike come from different tables or passages of the source.

Legend:
[1] = test system: individuals with deep vein thrombosis; settings: cited from earlier work
CYP2C9 [2] = settings: cited from earlier work
CYP2C9 [3] = target: CYP2C9 (Homo sapiens, UniProt P11712); settings: in vivo; cited from earlier work
Sequence of CYP2C9 (Homo sapiens, UniProt P11712) (P11712 whole entry): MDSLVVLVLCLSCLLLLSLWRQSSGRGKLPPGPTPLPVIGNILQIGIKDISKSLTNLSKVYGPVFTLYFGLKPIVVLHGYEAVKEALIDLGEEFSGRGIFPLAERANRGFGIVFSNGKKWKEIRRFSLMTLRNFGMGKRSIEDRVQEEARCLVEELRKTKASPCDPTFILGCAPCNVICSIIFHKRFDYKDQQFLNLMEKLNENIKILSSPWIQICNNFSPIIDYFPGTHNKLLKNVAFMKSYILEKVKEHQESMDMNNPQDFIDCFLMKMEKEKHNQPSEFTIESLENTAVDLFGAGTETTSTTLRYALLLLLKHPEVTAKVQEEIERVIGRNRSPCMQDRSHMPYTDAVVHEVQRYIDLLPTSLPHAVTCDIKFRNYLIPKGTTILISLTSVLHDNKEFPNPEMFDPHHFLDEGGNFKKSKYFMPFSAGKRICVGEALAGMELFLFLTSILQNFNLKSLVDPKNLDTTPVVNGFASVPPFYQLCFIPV

[4] = test system: individuals treated with warfarin; settings: cited from earlier work
[5] = test system: slow and fast acetylators; settings: cited from earlier work
[6] = test system: individuals with acute myocardial infarction; settings: cited from earlier work
[7] = test system: individuals with evolving myocardial infarction; settings: cited from earlier work; for combined incidence of death or nonfatal hemorrhagic stroke: TPA group vs groups receiving streptokinase
[8] = test system: individuals with acute myocardial infarction; settings: in vivo; cited from earlier work
[9] = cited from earlier work
coronary artery patency = settings: Heparin-Aspirin Reperfusion Trial, after TPA; aspirin 80 mg per day; cited from earlier work
[10] = test system: poor vs. extensive metabolizers; settings: cited from earlier work
[11] = test system: surgical and medical individuals; settings: individuals with hip fracture, begun preoperatively; cited from earlier work
[12] = individuals who died before heparin was started excluded

## CC(=O)CC(c1ccccc1)c1c(O)c2ccccc2oc1=O (racemic) [warfarin]
[1]; Lagerstedt 1985, calf vein thrombosis, heparin 5 days then warfarin 3 months vs only heparin […] days
  recurrence rate: no recurrences
[1]; both groups: INR 2.5 to 4.5 and INR 2.0 to 2.5
  incidence of recurrence: approximately 2%
CYP2C9 [2]; 1 individual, not specified, *3/*3
  MD (daily maintenance dose): 0.5 mg/day
CYP2C9 [2]; 38 Caucasian and African-American, *1/*3, *1/*2, *2/*2, CYP2A6*1/*2
  MD (maintenance dose): MD; 0.307 (*1/*3, *1/*2, *2/*2, CYP2A6*1/*2) mg/kg/wk
CYP2C9 [2]; 47 Japanese, *1/*3
  MD (daily maintenance dose): 1.75 mg/day
CYP2C9 [2]; 47 Japanese, *3/*3
  MD (daily maintenance dose): 0.4 mg/day
CYP2C9 [2]; 52 British, *1/*2, *2/*2
  MD (daily maintenance dose): 3.5 mg/day
CYP2C9 [2]; 52 British, *1/*3
  MD (daily maintenance dose): 2.5 mg/day
CYP2C9 [2]; 88 British, control group
  share of group with at least 1 of *3 or *2 allele: 1 of *3 or *2 allele vs. only 38% of control
CYP2C9 [2]; 88 British, low dose group
  risks of major bleeding: group; ↑ risks of major bleeding in the low dose
CYP2C9 [2]; 94 British, CYP2C9 *1/*2
  MD (daily maintenance dose): 3.8 mg/day
CYP2C9 [2]; 180 Caucasian, *1/*2, *2/*2
  MD (daily maintenance dose): 5.2 mg/day
CYP2C9 [2]; 180 Caucasian, *1/*3
  MD (daily maintenance dose): 3.8 mg/day
CYP2C9 [2]; 180 Caucasian, *2/*3
  MD (daily maintenance dose): 1.8 mg/day
CYP2C9 [2]; 561 British, *1/*2
  MD (daily maintenance dose): 4.31 mg/day
CYP2C9 [2]; 561 British, *1/*3
  MD (daily maintenance dose): 3.97 mg/day
CYP2C9 [2]; 561 British, *2/*2
  MD (daily maintenance dose): 3.04 mg/day
CYP2C9 [2]; 561 British, *2/*3
  MD (daily maintenance dose): 4.09 mg/day
CYP2C9 [2]; subjects requiring a high dose (>55 mg/week)
  share of subjects homozygous for CYP2C9*1: 83%
CYP2C9 [2]; subjects requiring a low dose (5-15 mg/week)
  share of subjects heterozygous for CYP2C9*2: 90%
CYP2C9 [3]
  MD (maintenance dose): vs. 0.397 (*1/*1) mg/kg/wk
[4]; inter-individual range
  effective daily doses: 1 to 60 mg/day
[4]; varies from one individual to another
  daily dose required to maintain efficacy while avoiding side effects: 0.5 to 60 mg

## Nc1ccc(S(=O)(=O)c2ccc(N)cc2)cc1 [dapsone]
[5]; fast acetylators
  adverse reactions: 17%
[5]; slow acetylators
  adverse reactions: 46%

## streptokinase
[6]; all individuals
  mortality rate: 9.2%
[6]; [12]
  mortality rate: 6.2%
[7]
  combined incidence of death or nonfatal hemorrhagic stroke: 7.5%
[8]
  cerebral hemorrhage rate: 0.24%
  stroke rate: 1.04%

## vitamin K
[9]; doses of 5 mg or more
  duration of resistance to warfarin: up to 1 week
[9]; parenteral administration
  time to evident partial reversal of the anticoagulant effect of warfarin: ≤ 6 h

## CC(=O)Oc1ccccc1C(=O)O [aspirin]
Coronary artery patency
  Coronary artery patency at 18 hours: 52%

## CC(=O)CC(c1ccccc1)c1c(O)c2ccccc2oc1=O (stereo not drawn) [sodium warfarin]
[1]; Hull 1979, proximal DVT, 3 months, heparin 5,000 units sc every 12 hours, sodium warfarin INR 2.5 to 4.5
  rate of recurrent venous thromboembolism: 0%

## COc1ccc2c(c1)[C@]13CCCC[C@@H]1[C@H](C2)N(C)CC3 [Dextromethorphan]
[10]; EMs
  mean performance ±SE: 95±0.5%
[10]; PMs
  mean performance ±SE: 86±6%

## tissue plasminogen activator [TPA]
[6]; all individuals
  mortality rate: 8.7%
[6]; [12]
  mortality rate: 5.9%
[7]
  combined incidence of death or nonfatal hemorrhagic stroke: 6.6%
[7]; in vivo
  reduction of mortality compared with the streptokinase strategies: 14%
[8]
  cerebral hemorrhage rate: 0.66%
  excess of episodes of presumed hemorrhagic strokes compared with streptokinase: 4.2 per 1000
  excess of strokes compared with streptokinase: 3.5 per 1000
  stroke rate: 1.39%

## Dextran
[11]
  incidence of thrombosis: 30%
